Assays:
[1] = system: MNFS60 (murine AML cells); test: Cell viability assay in MCSF dependent MNFS60 cells (Cell Titer Glo); format: cell-based; details: Mus musculus, tested at about 1 μM; compounds of Table 3; read-out: M-NFS-60 CP percent inhibition
In short: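 Luminescent ATP signal (CellTiter-Glo) after 72 hrs of compound exposure served as the viability measure. Growth was supported by 10 ng/ml MCSF (final), and EC50 values come from fitted triplicate data.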

[2] = biological target: T1, cytoplasmic domain of the human CSF-1R (Homo sapiens, UniProt P07333); test: In vitro kinase assay for colony stimulating factor-1 receptor (AlphaScreen); format: biochemical; details: tested at about 1 μM; compounds of Table 3; read-out: CSF-1R percent inhibition
T1 construct: Recombinant protein corresponding to the cytoplasmic domain of the human CSF-1R; purchased Invitrogen Corporation, Carlsbad, Calif; PV3249
T1 sequence (P07333 539-972 limits assumed): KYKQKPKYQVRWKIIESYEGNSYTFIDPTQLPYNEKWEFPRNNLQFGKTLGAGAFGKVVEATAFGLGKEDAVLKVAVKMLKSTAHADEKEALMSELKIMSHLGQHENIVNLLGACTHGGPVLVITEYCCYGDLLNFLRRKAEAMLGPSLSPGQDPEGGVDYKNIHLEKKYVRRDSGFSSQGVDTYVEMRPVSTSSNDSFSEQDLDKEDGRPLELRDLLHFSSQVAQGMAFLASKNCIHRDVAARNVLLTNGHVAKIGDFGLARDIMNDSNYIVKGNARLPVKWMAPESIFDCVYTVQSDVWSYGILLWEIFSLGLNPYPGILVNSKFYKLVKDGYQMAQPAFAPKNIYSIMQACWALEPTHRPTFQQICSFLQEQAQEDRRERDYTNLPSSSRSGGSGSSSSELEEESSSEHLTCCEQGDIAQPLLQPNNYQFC
In short: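 Tyrosine phosphorylation of a peptide substrate by 4 nM recombinant cytoplasmic-domain enzyme is measured at 1 μM ATP in Mn2+/Mg2+-containing Hepes buffer, pH 7.5. Detection uses PT66 AlphaScreen beads after overnight incubation.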

kinase domain of cKIT = biological target: T2, kinase domain of cKIT (Homo sapiens, UniProt P10721); test: Inhibition of cKIT kinase signaling in an in vitro biochemical assay (alphascreen); details: tested at about 1 μM; compounds of Table 3; read-out: cKit percent inhibition
T2 construct: The kinase domain of cKIT was assayed in 50 mM Hepes; purchased Upstate 14-559
T2 sequence (P10721 589-937 limits assumed): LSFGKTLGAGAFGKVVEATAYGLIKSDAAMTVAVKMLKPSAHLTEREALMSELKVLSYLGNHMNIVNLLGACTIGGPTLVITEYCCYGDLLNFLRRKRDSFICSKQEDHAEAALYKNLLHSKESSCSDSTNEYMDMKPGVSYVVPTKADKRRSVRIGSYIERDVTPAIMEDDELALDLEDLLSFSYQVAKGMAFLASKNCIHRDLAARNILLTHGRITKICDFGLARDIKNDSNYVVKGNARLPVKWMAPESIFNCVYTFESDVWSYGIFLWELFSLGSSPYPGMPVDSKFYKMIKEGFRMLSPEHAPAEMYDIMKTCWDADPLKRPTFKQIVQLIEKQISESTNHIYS

kinase domain of PDGFRβ = biological target: T3, kinase domain of PDGFRβ (Homo sapiens, UniProt P09619); test: Inhibition of PDGFRb kinase signaling in an in vitro biochemical assay (alphascreen); details: tested at about 1 μM; compounds of Table 3; read-out: PDGFRβ percent inhibition
T3 construct: The kinase domain of PDGFRβ was assayed in 50 mM Hepes; purchased Invitrogen P3082
T3 sequence (P09619 600-962 limits assumed): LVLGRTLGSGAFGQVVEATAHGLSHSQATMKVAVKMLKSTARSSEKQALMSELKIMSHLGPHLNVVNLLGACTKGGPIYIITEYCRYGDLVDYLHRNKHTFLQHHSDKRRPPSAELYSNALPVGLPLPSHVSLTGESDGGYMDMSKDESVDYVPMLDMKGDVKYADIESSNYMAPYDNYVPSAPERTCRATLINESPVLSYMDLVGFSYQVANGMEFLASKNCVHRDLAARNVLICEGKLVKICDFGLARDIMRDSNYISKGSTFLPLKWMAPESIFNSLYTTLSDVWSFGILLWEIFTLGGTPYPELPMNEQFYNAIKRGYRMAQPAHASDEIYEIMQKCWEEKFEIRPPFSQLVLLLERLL

[3] = biological target: T4, full-length human CSF-1R receptor (Homo sapiens, UniProt P07333); test: In vitro inhibition of CSF-1R receptor tyrosine phosphorylation in transfected HEK293H cells stimulated with MCSF; format: cell-based; details: HEK293-H, tested at about 1 μM; compounds of Table 3; read-out: pCSF1R percent inhibition
T4 construct: transfected with the full-length human CSF-1R receptor cloned in house; expressed in transfected cells; host or cells: HEK293H (Invitrogen Cat. #11631017)
T4 sequence (P07333 20-972): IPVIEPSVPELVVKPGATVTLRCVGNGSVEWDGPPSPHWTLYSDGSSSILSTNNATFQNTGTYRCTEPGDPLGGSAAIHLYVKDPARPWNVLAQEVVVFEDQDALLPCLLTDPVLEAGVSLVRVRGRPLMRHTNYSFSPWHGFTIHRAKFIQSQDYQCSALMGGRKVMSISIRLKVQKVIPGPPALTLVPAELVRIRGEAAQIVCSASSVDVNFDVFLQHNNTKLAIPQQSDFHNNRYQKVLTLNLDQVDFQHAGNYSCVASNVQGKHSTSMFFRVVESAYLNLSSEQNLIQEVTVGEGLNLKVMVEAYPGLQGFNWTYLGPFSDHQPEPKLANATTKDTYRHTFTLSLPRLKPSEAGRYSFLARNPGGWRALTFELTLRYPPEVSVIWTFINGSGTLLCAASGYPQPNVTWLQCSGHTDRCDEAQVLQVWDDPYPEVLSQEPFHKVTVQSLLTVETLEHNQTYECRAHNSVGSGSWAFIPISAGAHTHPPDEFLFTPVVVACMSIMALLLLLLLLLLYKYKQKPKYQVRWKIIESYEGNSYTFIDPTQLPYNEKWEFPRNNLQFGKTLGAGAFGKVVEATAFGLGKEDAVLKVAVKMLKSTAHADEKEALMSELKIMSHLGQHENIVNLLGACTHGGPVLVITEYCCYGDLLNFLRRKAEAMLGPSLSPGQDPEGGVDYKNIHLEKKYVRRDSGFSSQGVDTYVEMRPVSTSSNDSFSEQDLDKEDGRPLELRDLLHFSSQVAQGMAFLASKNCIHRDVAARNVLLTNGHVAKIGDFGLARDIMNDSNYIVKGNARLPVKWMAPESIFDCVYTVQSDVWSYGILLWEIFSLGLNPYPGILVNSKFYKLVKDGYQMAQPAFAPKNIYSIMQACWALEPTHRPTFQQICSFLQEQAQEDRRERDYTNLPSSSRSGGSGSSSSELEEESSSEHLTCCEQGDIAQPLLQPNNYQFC
Description: The lysate was then transferred to total CSF-1R antibody coated 96-well plates that had already been blocked with 3% Blocker A from Mesoscale discovery (MSD) for 2 hours and washed afterwards. Lysates were incubated overnight at 4° C. and the plates were then washed 4× with MSD Tris Wash Buffer. […] The plates were read on the Sector 6000 instrument (MSD). Raw data was imported in Abase and EC50s calculated with XL-fit data analysis software.

inhibition at 1 µM [2] | inhibition at 1 µM (kinase domain of cKIT) | inhibition at 1 µM (kinase domain of PDGFRβ) | inhibition at 1 µM [3] | Structure (SMILES) | inhibition at 1 µM [1]
100% | 24% | 6% | 98% | O[C@@H]1CCCC[C@H]1Nc1nc2ccc(Oc3ccnc(-c4cnn(CCF)c4)c3)cc2s1 [Example 259, (1R,2R)-2-(6-(2-(1-(2-fluoroethyl)-1H-pyrazol-4-yl)pyridin-4-yloxy)benzo[d]thiazol-2-ylamino)cyclohexanol] | 100%
100% | 25% | 0% | 98% | COCCn1cc(-c2cc(Oc3ccc4nc(N[C@@H]5CCCC[C@H]5O)sc4c3)ccn2)cn1 [Example 260, (1R,2R)-2-(6-(2-(1-(2-methoxyethyl)-1H-pyrazol-4-yl)pyridin-4-yloxy)benzo[d]thiazol-2-ylamino)cyclohexanol] | 100%
100% | 25% | 30% | 98% | Nc1ccc(-c2cc(Oc3ccc4nc(N[C@@H]5CCCC[C@H]5O)sc4c3)ccn2)cn1 [Example 261, (1R,2R)-2-(6-(6'-amino-2,3'-bipyridin-4-yloxy)benzo[d]thiazol-2-ylamino)cyclohexanol] | 100%
100% | 20% | 3% | 48% | O[C@@H]1CCCC[C@H]1Nc1nc2ccc(Oc3ccnc(-n4ccnc4)c3)cc2s1 [Example 262, (1R,2R)-2-(6-(2-(1H-imidazol-1-yl)pyridin-4-yloxy)benzo[d]thiazol-2-ylamino)cyclohexanol] | 46%
99% | 12% | 0% | 24% | O[C@@H]1CCCC[C@H]1Nc1nc2ccc(Oc3ccnc4c(F)cccc34)cc2s1 [Example 263, (1R,2R)-2-(6-(8-fluoroquinolin-4-yloxy)benzo[d]thiazol-2-ylamino)cyclohexanol] | 22%
100% | 18% | 21% | 94% | CCc1nc(-c2cc(Oc3ccc4nc(N[C@@H]5CCCC[C@H]5O)sc4c3)ccn2)[nH]c1CC [Example 266, (1R,2R)-2-(6-(2-(4,5-diethyl-1H-imidazol-2-yl)pyridin-4-yloxy)benzo[d]thiazol-2-ylamino)cyclohexanol] | 100%
100% | 16% | 26% | 96% | CCCc1nc(-c2cc(Oc3ccc4nc(N[C@@H]5CCCC[C@H]5O)sc4c3)ccn2)[nH]c1C [Example 267, (1R,2R)-2-(6-(2-(5-methyl-4-propyl-1H-imidazol-2-yl)pyridin-4-yloxy)benzo[d]thiazol-2-ylamino)cyclohexanol] | 100%
100% | 25% | 29% | 87% | Cc1c[nH]c(-c2cc(Oc3ccc4nc(N[C@@H](C)C5CCCCC5)sc4c3)ccn2)n1 [Example 268, (S)-N-(1-cyclohexylethyl)-6-(2-(4-methyl-1H-imidazol-2-yl)pyridin-4-yloxy)benzo[d]thiazol-2-amine] | 84%
100% | 18% | 13% | 85% | Cc1nc(-c2cc(Oc3ccc4nc(N[C@@H](C)C5CCCCC5)sc4c3)ccn2)[nH]c1C [Example 269, (S)-N-(1-cyclohexylethyl)-6-(2-(4,5-dimethyl-1H-imidazol-2-yl)pyridin-4-yloxy)benzo[d]thiazol-2-amine] | 75%
98% | 21% | 11% | 74% | CCc1nc(-c2cc(Oc3ccc4nc(N[C@@H](C)C5CCCCC5)sc4c3)ccn2)[nH]c1C [Example 270, (S)-N-(1-cyclohexylethyl)-6-(2-(4-ethyl-5-methyl-1H-imidazol-2-yl)pyridin-4-yloxy)benzo[d]thiazol-2-amine] | 50%
98% | 46% | 24% | 55% | C[C@H](Nc1nc2ccc(Oc3ccnc(-c4nc5c([nH]4)CCCC5)c3)cc2s1)C1CCCCC1 [Example 271, (S)-N-(1-cyclohexylethyl)-6-(2-(4,5,6,7-tetrahydro-1H-benzo[d]imidazol-2-yl)pyridin-4-yloxy)benzo[d]thiazol-2-amine] | 54%
100% | 41% | 14% | 88% | CCCn1cc(-c2cc(Oc3ccc4nc(N[C@@H](C)C5CCCCC5)sc4c3)ccn2)cn1 [Example 273, (S)-N-(1-cyclohexylethyl)-6-(2-(1-propyl-1H-pyrazol-4-yl)pyridin-4-yloxy)benzo[d]thiazol-2-amine] | 95%
100% | 28% | 12% | 82% | C[C@H](Nc1nc2ccc(Oc3ccnc(-c4cccnc4)c3)cc2s1)C1CCCCC1 [Example 274, (S)-6-(2,3'-bipyridin-4-yloxy)-N-(1-cyclohexylethyl)benzo[d] thiazol-2-amine] | 76%
100% | 45% | 16% | 94% | C[C@H](Nc1nc2ccc(Oc3ccnc(-c4ccncc4)c3)cc2s1)C1CCCCC1 [Example 275, (S)-6-(2,4'-bipyridin-4-yloxy)-N-(1-cyclohexylethyl)benzo[d] thiazol-2-amine] | 89%
100% | 39% | 26% | 97% | C[C@H](Nc1nc2ccc(Oc3ccnc(-c4ccc(N)nc4)c3)cc2s1)C1CCCCC1 [Example 276, (S)-6-(6'-amino-2,3'-bipyridin-4-yloxy)-N-(1-cyclohexylethyl)benzo[d] thiazol-2-amine] | 100%
100% | 38% | 12% | 75% | C[C@H](Nc1nc2ccc(Oc3ccnc(-c4cnc5[nH]ccc5c4)c3)cc2s1)C1CCCCC1 [Example 278, (S)-6-(2-(1H-pyrrolo[2,3-b]pyridin-5-yl)pyridin-4-yloxy)-N-(1-cyclohexylethyl)benzo[d] thiazol-2-amine] | 82%
100% | 30% | 7% | 59% | COc1ccc(-c2cc(Oc3ccc4nc(N[C@@H](C)C5CCCCC5)sc4c3)ccn2)cn1 [Example 279, (S)-N-(1-cyclohexylethyl)-6-(6'-methoxy-2,3'-bipyridin-4-yloxy)benzo[d]thiazol-2-amine] | 60%
100% | 11% | 22% | 65% | O[C@@H]1CCCC[C@H]1Nc1nc2ccc(Oc3ccnc(-c4ccncc4)c3)cc2s1 [Example 280, (1R,2R)-2-(6-(2,4'-bipyridin-4-yloxy)benzo[d]thiazol-2-ylamino)cyclohexanol] | 100%

Reference: patent US8173689B2 (Novartis AG, priority 2006, dated 2012)
